According to patent publication US20220401450A1, “PEDIATRIC FORMULATIONS FOR TREATMENT OF CANCER” (CELGENE CORPORATION, priority 2019, published 2022):
Peptide text beside a SMILES is read from it.

Experiment: Accelerated stability study of blends: chemical compatibility of sweeteners with Compound 1B (assay potency)
Assay type: physicochemical
Method: The chemical compatibility between these excipients and Compound 1B was evaluated through an accelerated stability study. The formulation samples were prepared as blends, then stored at 25° C./60% RH and 40° C./75% RH for up to four weeks.
Chemical stability of the blends was evaluated both in the presence and absence of high-intensity sweeteners, and the results are summarized in Table 2.

| Chemical stability (compatibility with Compound 1B) | SMILES |
| --- | --- |
| Compatible | CC1=CC(=O)[N-]S(=O)(=O)O1.[K+] [Acesulfame-K] |
| Compatible | COC(=O)[C@H](Cc1ccccc1)NC(=O)[C@@H](N)CC(=O)O [Aspartame] (H-Asp-Phe-OMe) |
| Incompatible | O=C1NS(=O)(=O)c2ccccc21 [Saccharin] |
| Compatible | OC[C@H]1O[C@H](O[C@]2(CCl)O[C@H](CCl)[C@@H](O)[C@@H]2O)[C@H](O)[C@@H](O)[C@H]1Cl [Sucralose] |
